Assay [1] addresses T1, E. coli GUS (EcGUS) (Escherichia coli, UniProt P05804). As to the kind of experiment: In vitro inhibition assay (pNPG hydrolysis). It is filed as biochemical. The settings on record: for IC50: pNPG 900 µM, 1 hour end point.
Assay [2] addresses T2, Eubacterium eligens GUS (EeGUS) (Lachnospira eligens, UniProt C4Z6Z2).
T2 sequence (C4Z6Z2 1-611): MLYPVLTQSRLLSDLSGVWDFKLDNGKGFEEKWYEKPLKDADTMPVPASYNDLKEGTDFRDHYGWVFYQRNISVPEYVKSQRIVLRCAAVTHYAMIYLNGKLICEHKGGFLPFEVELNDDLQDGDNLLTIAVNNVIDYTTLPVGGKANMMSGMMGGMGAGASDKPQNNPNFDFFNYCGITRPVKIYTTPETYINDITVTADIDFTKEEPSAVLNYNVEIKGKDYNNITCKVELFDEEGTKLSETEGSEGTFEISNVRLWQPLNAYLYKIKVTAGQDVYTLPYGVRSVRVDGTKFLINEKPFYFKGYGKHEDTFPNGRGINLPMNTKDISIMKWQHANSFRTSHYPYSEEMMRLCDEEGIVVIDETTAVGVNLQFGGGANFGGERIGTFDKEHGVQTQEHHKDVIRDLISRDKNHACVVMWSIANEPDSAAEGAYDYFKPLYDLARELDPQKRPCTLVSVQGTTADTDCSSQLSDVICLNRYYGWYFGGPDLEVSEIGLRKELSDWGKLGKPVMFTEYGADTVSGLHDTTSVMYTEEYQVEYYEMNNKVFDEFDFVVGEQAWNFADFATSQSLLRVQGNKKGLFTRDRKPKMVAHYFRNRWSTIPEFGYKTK
As to the kind of experiment: In vitro inhibition assay (pNPG hydrolysis). The note with it: pNPG 900 µM. It counts as biochemical.

Assay [3] addresses T3, Streptococcus agalactiae GUS (SaGUS) (Streptococcus agalactiae serotype V, UniProt Q8E0N2).
T3 construct: 6x His; made in house
As to the kind of experiment: In vitro inhibition assay (pNPG hydrolysis). It counts as biochemical. The note with it: for IC50: pNPG 900 µM.

Assay [4] deals with Clostridium perfringens GUS (CpGUS) (Clostridium perfringens, UniProt Q8VNV4). As to the kind of experiment: biochemical. It counts as biochemical.
In assay [5] the target is T4, Ruminococcus gnavus GUS (RgGUS) (Mediterraneibacter gnavus, UniProt A0A2N5PVZ8).
T4 sequence (A0A2N5PVZ8 1-603): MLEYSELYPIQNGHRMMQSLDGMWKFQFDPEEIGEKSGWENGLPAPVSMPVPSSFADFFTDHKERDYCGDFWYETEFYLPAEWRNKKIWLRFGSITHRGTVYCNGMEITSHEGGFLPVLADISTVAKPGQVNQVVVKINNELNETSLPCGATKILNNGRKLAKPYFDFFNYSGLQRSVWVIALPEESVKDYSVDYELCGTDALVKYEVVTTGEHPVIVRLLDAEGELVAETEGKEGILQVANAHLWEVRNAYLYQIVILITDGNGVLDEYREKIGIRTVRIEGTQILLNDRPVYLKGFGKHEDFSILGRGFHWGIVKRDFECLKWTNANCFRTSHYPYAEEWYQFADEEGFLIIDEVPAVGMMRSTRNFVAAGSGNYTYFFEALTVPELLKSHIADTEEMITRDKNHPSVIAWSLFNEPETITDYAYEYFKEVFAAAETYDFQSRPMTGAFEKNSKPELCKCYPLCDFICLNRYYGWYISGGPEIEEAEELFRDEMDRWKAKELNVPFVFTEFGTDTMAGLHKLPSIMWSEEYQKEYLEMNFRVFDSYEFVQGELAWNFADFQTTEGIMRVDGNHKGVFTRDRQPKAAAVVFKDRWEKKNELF
As to the kind of experiment: In vitro inhibition assay (pNPG hydrolysis). It counts as biochemical.

Assay [6] deals with T5, Bacteroides uniformis GUS (BuGUS) (Bacteroides uniformis, UniProt A0A078SUX9).
T5 sequence (A0A078SUX9 32-886): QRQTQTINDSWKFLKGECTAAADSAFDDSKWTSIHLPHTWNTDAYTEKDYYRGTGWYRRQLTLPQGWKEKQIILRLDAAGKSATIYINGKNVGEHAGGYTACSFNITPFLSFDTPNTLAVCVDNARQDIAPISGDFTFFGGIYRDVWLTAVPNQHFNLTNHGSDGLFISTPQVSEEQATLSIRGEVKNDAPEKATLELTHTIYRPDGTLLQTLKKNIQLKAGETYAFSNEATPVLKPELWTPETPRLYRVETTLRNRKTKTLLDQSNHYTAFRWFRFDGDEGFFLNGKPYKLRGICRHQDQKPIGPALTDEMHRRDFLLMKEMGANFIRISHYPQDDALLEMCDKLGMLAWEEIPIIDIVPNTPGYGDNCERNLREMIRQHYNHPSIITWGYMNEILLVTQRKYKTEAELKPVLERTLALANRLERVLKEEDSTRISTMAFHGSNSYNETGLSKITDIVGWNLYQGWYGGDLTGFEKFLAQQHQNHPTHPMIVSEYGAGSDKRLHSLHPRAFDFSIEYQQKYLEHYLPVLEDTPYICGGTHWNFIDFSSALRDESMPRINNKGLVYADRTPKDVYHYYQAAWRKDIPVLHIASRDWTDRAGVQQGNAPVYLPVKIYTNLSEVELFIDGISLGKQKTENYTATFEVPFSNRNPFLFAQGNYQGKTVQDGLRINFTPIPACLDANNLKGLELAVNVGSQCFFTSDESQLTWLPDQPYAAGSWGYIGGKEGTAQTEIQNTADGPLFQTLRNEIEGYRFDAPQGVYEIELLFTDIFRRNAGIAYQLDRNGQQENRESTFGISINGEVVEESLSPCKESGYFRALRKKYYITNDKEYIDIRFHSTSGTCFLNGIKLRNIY
As to the kind of experiment: In vitro inhibition assay (pNPG hydrolysis). It counts as biochemical.

For the next assay, the system named is EcGUS F365A. It counts as biochemical, E. coli. The settings on record: IC50 curves, Fig. S14.
Assay [7] has as its target T1, E. coli GUS (EcGUS). Also on record: method as in PMID 21051639, PMID 26364932, PMID 30062115. The settings on record: earlier work; cited from earlier work.
Assay [8] addresses Bacteroides fragilis GUS (BfGUS) (Bacteroides fragilis, UniProt Q5LIC7). Also on record: method as in PMID 21051639, PMID 26364932, PMID 30062115. The note with it: earlier work; cited from earlier work.
Where [9] appears, read: read-out: inhibition at 100 µM Inhibitor 1, 100 µM, pH 6.5 and 7.5.
Where [10] appears, read: Inhibitor 1 (IC50, nM) pH 6.5, pH 6.5.
Setting [11] is: Inhibitor 1 (IC50, nM) pH 7.5, pH 7.5.
[12] abbreviates: read-out: Inhibitor 1 (IC50, nM) pH 7.5, pH 7.5, pNPG 900 µM.
Setting [13] is: pH 6.5, read-out: UNC10201652 (IC50, nM) pH 6.5.
Where [14] appears, read: pH 7.5, read-out: UNC10201652 (IC50, nM) pH 7.5.
Setting [15] is: pH 6.5, 1 hour end point, read-out: UNC10201652 (IC50, nM) pH 6.5.
The mark [16] stands for this setting: pH 7.5, 1 hour end point, read-out: UNC10201652 (IC50, nM) pH 7.5.
Where [17] appears, read: pH 7.5, pNPG 900 µM, read-out: UNC10201652 (IC50, nM) pH 7.5.
Setting [18] is: read-out: UNC10201652 (IC50, nM) pH 6.5.

Structures are written as SMILES. Read-outs that look alike come from different tables or passages of the source. Bounds are passed on as bounds.

The values that follow come from PMC6351562, “Structure, function, and inhibition of drug reactivating human gut microbial β-glucuronidases” (Scientific Reports, 2019).

In general, inhibition refers to the percentage by which the read-out fell short of the control. What is called IC50 is the concentration that gives 50% inhibition.

T3 sequence (Q8E0N2 whole entry): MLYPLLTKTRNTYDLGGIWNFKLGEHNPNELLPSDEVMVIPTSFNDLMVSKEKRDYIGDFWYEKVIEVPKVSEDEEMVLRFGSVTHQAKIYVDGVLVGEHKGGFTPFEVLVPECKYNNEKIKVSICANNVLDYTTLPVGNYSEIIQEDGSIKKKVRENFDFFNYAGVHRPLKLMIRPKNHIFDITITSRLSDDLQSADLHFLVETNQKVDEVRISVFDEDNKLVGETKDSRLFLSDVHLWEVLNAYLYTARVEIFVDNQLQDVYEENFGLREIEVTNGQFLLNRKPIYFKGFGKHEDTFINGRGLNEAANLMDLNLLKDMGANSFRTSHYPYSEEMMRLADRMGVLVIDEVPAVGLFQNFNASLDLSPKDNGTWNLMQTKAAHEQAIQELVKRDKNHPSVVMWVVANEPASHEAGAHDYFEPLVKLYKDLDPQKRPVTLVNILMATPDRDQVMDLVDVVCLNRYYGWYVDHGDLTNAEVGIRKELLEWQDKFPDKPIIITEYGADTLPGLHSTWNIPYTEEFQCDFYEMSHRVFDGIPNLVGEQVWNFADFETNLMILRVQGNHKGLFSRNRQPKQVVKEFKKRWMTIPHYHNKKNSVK
T1 sequence (P05804 whole entry): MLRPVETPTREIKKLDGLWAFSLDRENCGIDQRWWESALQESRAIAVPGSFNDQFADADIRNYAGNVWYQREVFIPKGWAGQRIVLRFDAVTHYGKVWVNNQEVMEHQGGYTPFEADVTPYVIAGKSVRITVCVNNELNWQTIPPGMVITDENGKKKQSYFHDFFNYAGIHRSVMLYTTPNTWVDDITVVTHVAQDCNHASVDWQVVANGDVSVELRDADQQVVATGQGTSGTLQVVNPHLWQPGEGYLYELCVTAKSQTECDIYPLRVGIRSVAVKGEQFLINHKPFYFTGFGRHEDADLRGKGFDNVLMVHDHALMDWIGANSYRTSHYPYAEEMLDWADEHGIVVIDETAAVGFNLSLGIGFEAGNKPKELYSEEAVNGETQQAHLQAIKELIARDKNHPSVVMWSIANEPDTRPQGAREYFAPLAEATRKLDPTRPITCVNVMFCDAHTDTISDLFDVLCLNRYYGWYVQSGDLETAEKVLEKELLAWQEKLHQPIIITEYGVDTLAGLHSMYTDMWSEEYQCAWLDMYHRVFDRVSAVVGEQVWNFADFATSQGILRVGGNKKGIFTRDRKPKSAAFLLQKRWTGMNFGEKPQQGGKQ
Chain of Bacteroides fragilis GUS (BfGUS) (Q5LIC7 whole entry): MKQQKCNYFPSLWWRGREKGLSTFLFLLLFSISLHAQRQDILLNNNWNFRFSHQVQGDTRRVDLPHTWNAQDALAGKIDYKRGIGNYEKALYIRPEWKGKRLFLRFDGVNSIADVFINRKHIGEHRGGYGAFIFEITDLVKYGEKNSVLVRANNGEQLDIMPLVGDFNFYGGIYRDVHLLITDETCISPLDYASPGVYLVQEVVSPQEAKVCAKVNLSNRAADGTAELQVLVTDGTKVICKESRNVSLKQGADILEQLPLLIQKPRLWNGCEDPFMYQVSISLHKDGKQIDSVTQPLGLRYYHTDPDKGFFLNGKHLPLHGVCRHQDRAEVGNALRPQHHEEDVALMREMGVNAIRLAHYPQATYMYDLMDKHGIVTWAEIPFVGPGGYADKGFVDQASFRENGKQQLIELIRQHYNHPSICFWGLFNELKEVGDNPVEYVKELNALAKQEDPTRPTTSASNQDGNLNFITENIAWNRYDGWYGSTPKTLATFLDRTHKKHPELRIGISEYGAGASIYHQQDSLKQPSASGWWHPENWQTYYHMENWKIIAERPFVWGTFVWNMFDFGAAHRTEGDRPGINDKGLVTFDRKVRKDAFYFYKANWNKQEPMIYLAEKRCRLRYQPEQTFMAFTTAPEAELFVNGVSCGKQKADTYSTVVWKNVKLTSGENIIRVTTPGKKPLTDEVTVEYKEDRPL

Regarding `CCOc1ccc(NC(=S)N(CCO)Cc2cc3cc(C)cc(C)c3[nH]c2=O)cc1` [Inhibitor 1], the inhibition at 100 µM (on E. coli GUS (EcGUS) [1] (setting [9]); in assay [3] (setting [9])) was no less than 80% throughout. Besides, the IC50 was greater than 100000 nM in assay [2] (setting [10]); greater than 100000 nM in assay [2] (setting [11]); greater than 25000 nM in [3] (setting [10]); greater than 25000 nM in assay [3] (setting [11]); greater than 100000 nM in [4] (Inhibitor 1 (IC50, nM) pH 6.5); greater than 100000 nM in assay [4] (Inhibitor 1 (IC50, nM) pH 7.5). Also, the half-maximal inhibitory concentration (IC50) in assay [5], in [5] (setting [12]), in assay [6] and in assay [6] (setting [12]) was greater than 100000 nM each time. Also, the “potency toward EcGUS F365 mutant compared with WT” value with EcGUS F365A is “less potent”. In addition, the “inhibition of EcGUS (in words)” value on E. coli GUS (EcGUS) [7] is “potent”. The “inhibition of BfGUS (in words)” value in [8] is reported as “did not inhibit”.

With `C1CCc2c(c(N3CCOCC3)nc3sc4c(N5CCNCC5)nnnc4c23)C1` [UNC10201652], the “decrease in potency from pH 7.5 to pH 6.5” value amounted to 3 fold at E. coli GUS (EcGUS) [1] (UNC10201652, IC50 pH 6.5 vs pH 7.5) and 6 fold in assay [4]. For the same compound, the IC50 is 310 ± 20 nM at E. coli GUS (EcGUS) [1] (setting [13]); 100 ± 8 nM at E. coli GUS (EcGUS) [1] (setting [14]); 1900 ± 100 nM in [2] (setting [15]); 410 ± 30 nM in assay [2] (setting [16]); 450 ± 30 nM in [3] (setting [15]); 133 ± 3 nM in [3] (setting [16]). In addition, the half-maximal inhibitory concentration (IC50) in assay [4] (IC50) was 26 to 160 nM; in [4] (setting [13]) it was 160 ± 10 nM; in assay [4] (setting [14]) it was 26 ± 3 nM; in assay [5] (setting [17]) it was greater than 100000 nM; in [5] (setting [18]), greater than 100000 nM; in assay [6] (setting [17]) it was greater than 100000 nM. In assay [6] (setting [18]), the IC50 is greater than 100000 nM. The “potency relative to Inhibitor 1” value on E. coli GUS (EcGUS) [1] (pH 7.5, times more potent than Inhibitor 1) amounted to 19 times. The “inhibition (in words)” value in assay [6] (UNC10201652, text in picture of Fig. 7c) is “No Inhibition”. In addition, the “potency toward EcGUS F365 mutant compared with WT” value in the assay on EcGUS F365A is “less potent”. For the same compound, the “inhibition of EcGUS (in words)” value at E. coli GUS (EcGUS) [7] is given as “potent”. Further, the “inhibition of BfGUS (in words)” value in [8] is recorded as “did not inhibit”.
